From US7700618B2 (Pfizer Inc, priority 2006, dated 2010)
pEC50: −log10 of the molar value.

Biological target: T1, Human CB2 (Homo sapiens, UniProt P34972)
T1 construct: expressed in transfected cells; host or cells: CHO-K1 (Chinese hamster ovary K1) cells
Assay: Agonist-induced cAMP change in human CB2 transfected CHO-K1 cells
Assay type: cell-based
Conditions: forskolin 5 μM stimulated cAMP; for pEC50: 30 min 37° C.
Method: Agonist-induced cAMP Change in Human CB2 Transfected CHO-K1 Cells
Human CB2 transfected Chinese hamster ovary-K1 (CHO-K1) cells were established and grown to 60-80% confluence. The medium was changed to F-12 medium containing 10% dialysed FBS, and the cells were incubated overnight. On the day of the assay, the cells were harvested with PBS/1 mM EDTA, centrifuged and washed with PBS. Cell pellets were resuspended in the incubation buffer (F-12 medium, 20 mM HEPES, 1 mM IBMX, 0.1 mM Ro-20-1724) at the concentration of 1×10^5 cells/ml and pre-incubated for 15 min at room temperature. The agonist samples were diluted from 10 mM stock solution in DMSO and dispensed into 96-well half-area plates (12.5 μl/well) with assay buffer (F-12, 20 mM HEPES). The reaction was initiated by adding the cells (25 μl/well) into the well containing forskolin (12.5 μL/well, final 5 μM) and diluted compounds. After incubation for 30 minutes at 37° C., cAMP-XL665 conjugated, and then the anti-cAMP-cryptase conjugate was added to the lysate (25 μl/well each). After further incubation for 60 minutes at room temperature, measurements were made on the Wallac 1420 ARVOsx multilabel counter (Excitation 320 nm, Emission 665 nm/620 nm, delay time 50 μs, window time 400 μs). Data analysis was made based on the ratio of fluorescence intensity of each well at 620 nm and 665 nm. The equation “sigmoldal dose-response” was used for the determination of EC50 and Emax values.

T1 sequence (P34972 whole entry): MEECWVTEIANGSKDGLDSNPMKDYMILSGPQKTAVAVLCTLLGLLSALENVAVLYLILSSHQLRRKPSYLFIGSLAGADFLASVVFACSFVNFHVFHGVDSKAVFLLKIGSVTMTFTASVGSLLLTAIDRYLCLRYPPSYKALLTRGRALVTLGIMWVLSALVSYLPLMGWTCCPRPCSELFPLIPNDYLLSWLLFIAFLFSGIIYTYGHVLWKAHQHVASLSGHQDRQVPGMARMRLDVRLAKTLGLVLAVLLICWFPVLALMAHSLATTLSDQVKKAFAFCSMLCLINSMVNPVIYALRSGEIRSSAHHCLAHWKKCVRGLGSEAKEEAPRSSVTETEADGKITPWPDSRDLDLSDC

In the case of `CC(C)(C)Cc1nc2cc(S(=O)(=O)C(C)(C)C(=O)N3CCOCC3)ccc2n1CC1CC1` [Example 6, 1-(Cyclopropylmethyl)-5-[(1,1-dimethyl-2-morpholin-4-yl-2-oxoethyl)sulfonyl]-2-(2,2-dimethylpropyl)-1H-benzimidazole], the Emax was 136% and the pEC50 was 8.53.
Work on `CC(C)(C)c1nc2cc(S(=O)(=O)C(C)(C)C(N)=O)ccc2n1CC1(O)CCCC1` [Example 12, 2-({2-tert-Butyl-1-[(1-hydroxycyclopentyl)methyl]-1H-benzimidazol-5-yl}sulfonyl)-2-methylpropanamide] yielded an Emax of 133% and a pEC50 of 8.27.
With `CC(=O)NC(C)(C)CS(=O)(=O)c1ccc2c(c1)nc(CC(C)(C)C)n2CC1CC1` [Example 19, N-(2-{[1-(Cyclopropylmethyl)-2-(2,2-dimethylpropyl)-1H-benzimidazol-5-yl]sulfonyl}-1,1-dimethylethyl)acetamide] the Emax was 110% and the pEC50 was 8.42.
Compound `CC(C)(C)Cc1nc2cc(S(=O)(=O)C(C)(C)C(=O)NCCO)ccc2n1CC1CC1` [Example 9, 2-{[1-(Cyclopropylmethyl)-2-(2,2-dimethylpropyl)-1H-benzimidazol-5-yl]sulfonyl}-N-(2-hydroxyethyl)-2-methylpropanamide] has an Emax of 127% and a pEC50 of 8.95.
Compound `CC(C)(C)Cc1nc2cc(S(=O)(=O)C(C)(C)CNS(C)(=O)=O)ccc2n1CC1CC1` [Example 14, N-(2-{[1-(Cyclopropylmethyl)-2-(2,2-dimethylpropyl)-1H-benzimidazol-5-yl]sulfonyl}-2-methylpropyl)methanesulfonamide] has an Emax of 120% and a pEC50 of 8.80.
In the case of `CC(C)(C)Cc1nc2cc(S(=O)(=O)C(C)(C)C(N)=O)cnc2n1CC1CC1` [Example 5, 2-{[3-(Cyclopropylmethyl)-2-(2,2-dimethylpropyl)-3H-imidazo[4,5-b]pyridin-6-yl]sulfonyl}-2-methylpropanamide], the Emax was 118% and the pEC50 was 8.26.
Compound `CC(C)(C)Cc1nc2cc(S(=O)(=O)C(C)(C)C(N)=O)ccc2n1CC1CC1` [Example 1, 2-{[1-(Cyclopropylmethyl)-2-(2,2-dimethylpropyl)-1H-benzimidazol-5-yl]sulfonyl}-2-methylpropanamide] has an Emax of 118% and a pEC50 of 9.04.
`CC(C)(C)Cc1nc2cc(S(=O)(=O)C3(C(N)=O)CCOCC3)ccc2n1CC1CC1` [Example 4, 4-{[1-(Cyclopropylmethyl)-2-(2,2-dimethylpropyl)-1H-benzimidazol-5-yl]sulfonyl}tetrahydro-2H-pyran-4-carboxamide] showed an Emax of 114% and a pEC50 of 8.88.
Compound `CN(C)C(=O)NCC(C)(C)S(=O)(=O)c1ccc2c(c1)nc(CC(C)(C)C)n2CC1CC1` [Example 15, N′-(2-{[1-(Cyclopropylmethyl)-2-(2,2-dimethylpropyl)-1H-benzimidazol-5-yl]sulfonyl}-2-methylpropyl)-N,N-dimethylurea] has an Emax of 113% and a pEC50 of 8.08.
`CC(=O)NCC(C)(C)S(=O)(=O)c1ccc2c(c1)nc(CC(C)(C)C)n2CC1CC1` [Example 13, N-(2-{[1-(Cyclopropylmethyl)-2-(2,2-dimethylpropyl)-1H-benzimidazol-5-yl]sulfonyl}-2-methylpropyl)acetamide] showed an Emax of 113% and a pEC50 of 8.28.
`CC(C)(C)Cc1nc2cc(S(=O)(=O)C(C)(C)C(=O)NCCN)ccc2n1CC1CC1` [Example 11] was tested, and the Emax was 117% and the pEC50 was 7.86.
`CNC(=O)C(C)(C)S(=O)(=O)c1ccc2c(c1)nc(CC(C)(C)C)n2CC1CC1` [Example 8, 2-{[1-(Cyclopropylmethyl)-2-(2,2-dimethylpropyl)-1H-benzimidazol-5-yl]sulfonyl}-N,2-dimethylpropanamide] was tested, and the Emax was 129% and the pEC50 was 8.18.
`CC(C)(C)Cc1nc2cc(S(=O)(=O)C3(C(N)=O)CCC3)ccc2n1CC1CC1` [Example 3, 1-{[1-(Cyclopropylmethyl)-2-(2,2-dimethylpropyl)-1H-benzimidazol-5-yl]sulfonyl}cyclobutanecarboxamide] was tested, and the Emax was 121% and the pEC50 was 9.35.
With `CC(C)(C)Cc1nc2cc(S(=O)(=O)CC(C)(C)NC(N)=O)ccc2n1CC1CC1` [Example 18, N-(2-{[1-(Cyclopropylmethyl)-2-(2,2-dimethylpropyl)-1H-benzimidazol-5-yl]sulfonyl}-1,1-dimethylethyl)urea] the Emax was 109% and the pEC50 was 7.58.
With `CNC(=O)NCC(C)(C)S(=O)(=O)c1ccc2c(c1)nc(CC(C)(C)C)n2CC1CC1` [Example 16, N-(2-{[1-(Cyclopropylmethyl)-2-(2,2-dimethylpropyl)-1H-benzimidazol-5-yl]sulfonyl}-2-methylpropyl)-N′-methylurea] the Emax was 109% and the pEC50 was 8.91.
`CC(C)(C)Cc1nc2cc(S(=O)(=O)C3(C(N)=O)CC3)ccc2n1CC1CC1` [Example 2, 1-{[1-(Cyclopropylmethyl)-2-(2,2-dimethylpropyl)-1H-benzimidazol-5-yl]sulfonyl}cyclopropanecarboxamide] gave an Emax of 160% and a pEC50 of 9.82.
With `CC(C)(C)Cc1nc2cc(S(=O)(=O)C(C)(C)C(=O)NCC(N)=O)ccc2n1CC1CC1` [Example 10] the Emax was 109% and the pEC50 was 8.44.
`CC(C)(C)Cc1nc2cc(S(=O)(=O)C(C)(C)CNC(N)=O)ccc2n1CC1CC1` [Example 17, N-(2-{[1-(Cyclopropylmethyl)-2-(2,2-dimethylpropyl)-1H-benzimidazol-5-yl]sulfonyl}-2-methylpropyl)urea] gave an Emax of 120% and a pEC50 of 8.70.
`CN(C)C(=O)C(C)(C)S(=O)(=O)c1ccc2c(c1)nc(CC(C)(C)C)n2CC1CC1` [Example 7, 2-{[1-(Cyclopropylmethyl)-2-(2,2-dimethylpropyl)-1H-benzimidazol-5-yl]sulfonyl}-N,N,2-trimethylpropanamide] gave an Emax of 141% and a pEC50 of 8.87.
